Data taken from ChEMBL document CHEMBL2396621, “Design, synthesis and biological evaluation of 2-mercapto-3-phenethylquinazoline bearing anilide fragments as potential antitumor agents: molecular docking study” (2013).

Tests used:
Format in all cases: functional
A549 = assay: Cytotoxicity against human A549 cells assessed as growth inhibition at 10 uM after 48 hrs by coulter counter analysis; settings: A549, 48 h, read-out: GI
SN12C = assay: Cytotoxicity against human SN12C cells assessed as growth inhibition at 10 uM after 48 hrs by coulter counter analysis; settings: read-out: GI
SW-620 = assay: Cytotoxicity against human SW620 cells assessed as growth inhibition at 10 uM after 48 hrs by coulter counter analysis; settings: SW-620, 48 h, read-out: GI
MDA-MB-435 = assay: Cytotoxicity against human MDA-MB-435 cells assessed as growth inhibition at 10 uM after 48 hrs by coulter counter analysis; settings: MDA-MB-435, 48 h, read-out: GI
OVCAR-3 = assay: Cytotoxicity against human OVCAR3 cells assessed as growth inhibition at 10 uM after 48 hrs by coulter counter analysis; settings: OVCAR-3, 48 h, read-out: GI
MDA-MB-468 = assay: Cytotoxicity against human MDA-MB-468 cells assessed as growth inhibition at 10 uM after 48 hrs by coulter counter analysis; settings: MDA-MB-468, 48 h, read-out: GI
NCI-H460 = assay: Cytotoxicity against human NCI-H460 cells assessed as growth inhibition at 10 uM after 48 hrs by coulter counter analysis; settings: NCI-H460, 48 h, read-out: GI
NCI-H23 = assay: Cytotoxicity against human NCI-H23 cells assessed as growth inhibition at 10 uM after 48 hrs by coulter counter analysis; settings: NCI-H23, 48 h, read-out: GI
SF-295 = assay: Cytotoxicity against human SF295 cells assessed as growth inhibition at 10 uM after 48 hrs by coulter counter analysis; settings: SF-295, 48 h, read-out: GI
A498 = assay: Cytotoxicity against human A498 cells assessed as growth inhibition at 10 uM after 48 hrs by coulter counter analysis; settings: A498, 48 h, read-out: GI
NCI-H322M = assay: Cytotoxicity against human NCI-H322M cells assessed as growth inhibition at 10 uM after 48 hrs by coulter counter analysis; settings: read-out: GI
TK-10 = assay: Cytotoxicity against human TK10 cells assessed as growth inhibition at 10 uM after 48 hrs by coulter counter analysis; settings: TK-10, 48 h, read-out: GI
SF-539 = assay: Cytotoxicity against human SF539 cells assessed as growth inhibition at 10 uM after 48 hrs by coulter counter analysis; settings: SF-539, 48 h, read-out: GI
IGROV-1 = assay: Cytotoxicity against human IGROV1 cells assessed as growth inhibition at 10 uM after 48 hrs by coulter counter analysis; settings: IGROV-1, 48 h, read-out: GI
NCI-H226 = assay: Cytotoxicity against human NCI-H226 cells assessed as growth inhibition at 10 uM after 48 hrs by coulter counter analysis; settings: NCI-H226, 48 h, read-out: GI
HCT-15 = assay: Cytotoxicity against human HCT15 cells assessed as growth inhibition at 10 uM after 48 hrs by coulter counter analysis; settings: HCT-15, 48 h, read-out: GI
ACHN = assay: Cytotoxicity against human ACHN cells assessed as growth inhibition at 10 uM after 48 hrs by coulter counter analysis; settings: read-out: GI
HT-29 = assay: Cytotoxicity against human HT-29 cells assessed as growth inhibition at 10 uM after 48 hrs by coulter counter analysis; settings: HT-29, 48 h, read-out: GI
SK-MEL-5 = assay: Cytotoxicity against human SK-MEL-5 cells assessed as growth inhibition at 10 uM after 48 hrs by coulter counter analysis; settings: SK-MEL-5, 48 h, read-out: GI
HCC 2998 = assay: Cytotoxicity against human HCC2998 cells assessed as growth inhibition at 10 uM after 48 hrs by coulter counter analysis; settings: HCC 2998, 48 h, read-out: GI
NCI-H522 = assay: Cytotoxicity against human NCI-H522 cells assessed as growth inhibition at 10 uM after 48 hrs by coulter counter analysis; settings: NCI-H522, 48 h, read-out: GI
UO-31 = assay: Cytotoxicity against human UO31 cells assessed as growth inhibition at 10 uM after 48 hrs by coulter counter analysis; settings: UO-31, 48 h, read-out: GI
PC-3 = assay: Cytotoxicity against human PC3 cells assessed as growth inhibition at 10 uM after 48 hrs by coulter counter analysis; settings: PC-3, 48 h, read-out: GI
UACC-257 = assay: Cytotoxicity against human UACC257 cells assessed as growth inhibition at 10 uM after 48 hrs by coulter counter analysis; settings: UACC-257, 48 h, read-out: GI
OVCAR-4 = assay: Cytotoxicity against human OVCAR4 cells assessed as growth inhibition at 10 uM after 48 hrs by coulter counter analysis; settings: OVCAR-4, 48 h, read-out: GI
LOX IMVI = assay: Cytotoxicity against human LOXIMVI cells assessed as growth inhibition at 10 uM after 48 hrs by coulter counter analysis; settings: read-out: GI
[1] = Cytotoxicity against human NCI-ADR-RES cells assessed as growth inhibition at 10 uM after 48 hrs by coulter counter analysis; settings: read-out: GI
SNB-19 = assay: Cytotoxicity against human SNB19 cells assessed as growth inhibition at 10 uM after 48 hrs by coulter counter analysis; settings: SNB-19, 48 h, read-out: GI
COLO 205 = assay: Cytotoxicity against human COLO205 cells assessed as growth inhibition at 10 uM after 48 hrs by coulter counter analysis; settings: COLO 205, 48 h, read-out: GI
SF-268 = assay: Cytotoxicity against human SF268 cells assessed as growth inhibition at 10 uM after 48 hrs by coulter counter analysis; settings: SF-268, 48 h, read-out: GI
SNB-75 = assay: Cytotoxicity against human SNB75 cells assessed as growth inhibition at 10 uM after 48 hrs by coulter counter analysis; settings: SNB-75, 48 h, read-out: GI
SK-OV-3 = assay: Cytotoxicity against human SKOV3 cells assessed as growth inhibition at 10 uM after 48 hrs by coulter counter analysis; settings: SK-OV-3, 48 h, read-out: GI
HOP-62 = assay: Cytotoxicity against human HOP62 cells assessed as growth inhibition at 10 uM after 48 hrs by coulter counter analysis; settings: HOP-62, 48 h, read-out: GI
T47D = assay: Cytotoxicity against human T47D cells assessed as growth inhibition at 10 uM after 48 hrs by coulter counter analysis; settings: read-out: GI
KM12 = assay: Cytotoxicity against human KM12 cells assessed as growth inhibition at 10 uM after 48 hrs by coulter counter analysis; settings: KM12, 48 h, read-out: GI
DU-145 = assay: Cytotoxicity against human DU145 cells assessed as growth inhibition at 10 uM after 48 hrs by coulter counter analysis; settings: DU-145, 48 h, read-out: GI
BT-549 = assay: Cytotoxicity against human BT549 cells assessed as growth inhibition at 10 uM after 48 hrs by coulter counter analysis; settings: BT-549, 48 h, read-out: GI

Row | Structure (SMILES) | inhibition of growth at 10 µM (A549) [%] | inhibition of growth at 10 µM (SN12C) [%] | inhibition of growth at 10 µM (SW-620) [%] | inhibition of growth at 10 µM (MDA-MB-435) [%] | inhibition of growth at 10 µM (OVCAR-3) [%] | inhibition of growth at 10 µM (MDA-MB-468) [%] | inhibition of growth at 10 µM (NCI-H460) [%] | inhibition of growth at 10 µM (NCI-H23) [%] | inhibition of growth at 10 µM (SF-295) [%] | inhibition of growth at 10 µM (A498) [%] | inhibition of growth at 10 µM (NCI-H322M) [%] | inhibition of growth at 10 µM (TK-10) [%] | inhibition of growth at 10 µM (SF-539) [%] | inhibition of growth at 10 µM (IGROV-1) [%] | inhibition of growth at 10 µM (HCT-15) [%] | inhibition of growth at 10 µM (ACHN) [%] | inhibition of growth at 10 µM (HT-29) [%] | inhibition of growth at 10 µM (SK-MEL-5) [%] | inhibition of growth at 10 µM (HCC 2998) [%] | inhibition of growth at 10 µM (NCI-H522) [%] | other results
1 | O=C(CSc1nc2ccccc2c(=O)n1CCc1ccccc1)Nc1ccc(Cl)cc1 | 16 | 13 | 11 | 13 | 32 | 36 | 32 | 21 | 32 | < 10 | 13 | 19 | 41 | 36 | 16 | 22 | < 10 | 22 | < 10 | 45 | inhibition of growth at 10 µM (NCI-H226): 24%; inhibition of growth at 10 µM (UO-31): 28%; inhibition of growth at 10 µM (PC-3): 30%; inhibition of growth at 10 µM (UACC-257): 18%; inhibition of growth at 10 µM (OVCAR-4): 14%; inhibition of growth at 10 µM (LOX IMVI): 23%; inhibition of growth at 10 µM [1]: 21%; inhibition of growth at 10 µM (SNB-19): 30%; inhibition of growth at 10 µM (COLO 205): 15%; inhibition of growth at 10 µM (SF-268): 40%; inhibition of growth at 10 µM (SNB-75): 63%; inhibition of growth at 10 µM (SK-OV-3): 43%; inhibition of growth at 10 µM (HOP-62): 40%; inhibition of growth at 10 µM (T47D): 56%; inhibition of growth at 10 µM (KM12): 14%; inhibition of growth at 10 µM (DU-145): 12%
2 | O=C(CSc1nc2ccccc2c(=O)n1CCc1ccccc1)Oc1ccccc1 | 12 | 16 | < 10 | 19 | < 10 | < 10 | 14 | 14 | 20 | 18 | 25 | < 10 | < 10 | 10 | < 10 | 10 | < 10 | < 10 | < 10 | 37 | inhibition of growth at 10 µM (UO-31): 16%; inhibition of growth at 10 µM (PC-3): 14%; inhibition of growth at 10 µM (UACC-257): 11%; inhibition of growth at 10 µM (OVCAR-4): 59%; inhibition of growth at 10 µM (LOX IMVI): 16%; inhibition of growth at 10 µM (BT-549): < 10%; inhibition of growth at 10 µM [1]: 22%; inhibition of growth at 10 µM (SNB-19): < 10%; inhibition of growth at 10 µM (COLO 205): < 10%; inhibition of growth at 10 µM (SF-268): 16%; inhibition of growth at 10 µM (SNB-75): 28%; inhibition of growth at 10 µM (SK-OV-3): 28%; inhibition of growth at 10 µM (T47D): 14%; inhibition of growth at 10 µM (KM12): < 10%
3 | O=C(CSc1nc2ccccc2c(=O)n1CCc1ccccc1)Oc1ccc(Cl)cc1 | < 10 | < 10 | < 10 | < 10 | < 10 | < 10 | < 10 | 25 | < 10 | 10 | < 10 | < 10 | < 10 | 15 | 25 | < 10 | < 10 | < 10 | < 10 | 37 | inhibition of growth at 10 µM (NCI-H226): 13%; inhibition of growth at 10 µM (UO-31): < 10%; inhibition of growth at 10 µM (PC-3): 25%; inhibition of growth at 10 µM (UACC-257): < 10%; inhibition of growth at 10 µM (OVCAR-4): 59%; inhibition of growth at 10 µM (LOX IMVI): 14%; inhibition of growth at 10 µM (BT-549): 15%; inhibition of growth at 10 µM [1]: 10%; inhibition of growth at 10 µM (SNB-19): < 10%; inhibition of growth at 10 µM (COLO 205): < 10%; inhibition of growth at 10 µM (SF-268): < 10%; inhibition of growth at 10 µM (SNB-75): 28%; inhibition of growth at 10 µM (SK-OV-3): 28%; inhibition of growth at 10 µM (HOP-62): 10%; inhibition of growth at 10 µM (T47D): 14%; inhibition of growth at 10 µM (KM12): < 10%; inhibition of growth at 10 µM (DU-145): < 10%
